This note sets out measurements from BindingDB's records for doi:10.1016/j.bmcl.2019.04.027 (Gilead Sciences, 2019).

The nature of assay [1]: Inhibition of NS5A in HCV genotype 1a H77 infected in human HuH7 replicon cells assessed as reduction in viral replication after 3 days by luciferase reporter gene assay. In general terms: Replicon systems follow genome replication, usually without infectious particles.
A short description of assay [2]: Inhibition of NS5A in HCV genotype 2a JFH1 (L31) infected in human HuH7 replicon cells assessed as reduction in viral replication after 3 days by luciferase reporter gene assay.
The nature of assay [3]: Inhibition of NS5A in HCV genotype 1b Con1 infected in human HuH7 replicon cells assessed as reduction in viral replication after 3 days by luciferase reporter gene assay.
Assay [4] in a line: Inhibition of NS5A L31M mutant in HCV genotype 2a JFH1 infected in human HuH7 replicon cells assessed as reduction in viral replication after 3 days by luciferase reporter gene assay.
Assay [5] in a line: Inhibition of NS5A L31M mutant in patient derived HCV genotype 2b MD2b-1 infected in human HuH7 replicon cells assessed as reduction in viral replication after 3 days by luciferase reporter gene assay.
Assay [6] is described as follows: Inhibition of NS5A L31M mutant in HCV genotype 2a J6 (M31) infected in human HuH7 replicon cells assessed as reduction in viral replication after 3 days by luciferase reporter gene assay.
The nature of assay [7]: Inhibition of NS5A in HCV genotype 3a S52 infected in human HuH7 transient chimeric replicon cells assessed as reduction in viral replication after 3 days by luciferase reporter gene assay.
Assay [8] can be described thus: Inhibition of NS5A in HCV genotype 4a ED43 infected in human HuH7 transient chimeric replicon cells assessed as reduction in viral replication after 3 days by luciferase reporter gene assay.
The nature of assay [9]: Inhibition of NS5A in HCV genotype 2a JFH1 infected in human HuH7 replicon cells assessed as reduction in viral replication after 3 days by luciferase reporter gene assay.
Assay [10] is described as follows: Inhibition of NS5A in HCV genotype 2b MD2b-1 infected in human HuH7 replicon cells assessed as reduction in viral replication after 3 days by luciferase reporter gene assay.

Consider `COC(=O)N[C@H](C(=O)N1CCC[C@H]1c1ncc(-c2cc3c4c(c2)OCc2cc(-c5cnc([C@@H]6CCCN6C(=O)[C@@H](NC(=O)OC)[C@@H](C)OC)[nH]5)cc(c2-4)OC3)[nH]1)C(C)C`, for which the EC50 – broadly, the midpoint of the concentration-response curve – in assay [1] was found to be 87 pM; in [2], 10 pM; in [3], 79 pM; in assay [4], 3670 pM.

On to `COC(=O)NC(C(=O)N1CCC[C@H]1c1ncc(-c2cc3c4c(c2)OCc2cc(-c5cnc([C@@H]6CCCN6C(=O)[C@@H](NC(=O)OC)C(C)C)[nH]5)cc(c2-4)OC3)[nH]1)c1cccnc1` (stereo not given in full), for which the EC50 was found to be 750 pM in assay [1]; 38 pM in assay [2]; 580 pM in assay [3]; 1210 pM in [5]; 1800 pM in [6].

Take `COC(=O)N[C@H](C(=O)N1CCC[C@H]1c1ncc(-c2cc3c4c(c2)COc2cc(-c5cnc([C@@H]6CCCN6C(=O)[C@@H](NC(=O)OC)C(C)C)[nH]5)cc(c2-4)CC3)[nH]1)C(C)C`: the EC50 in [1] was determined as 65 pM; in [2], 16 pM; in [3], 28 pM; in assay [6] it was 23700 pM.

As for `COC(=O)N[C@H](C(=O)N1CCC[C@H]1c1ncc(-c2ccc3c4ccc(-c5cnc([C@@H]6CCCN6C(=O)[C@@H](NC(=O)OC)C(C)C)[nH]5)cc4c4nccnc4c3c2)[nH]1)C(C)C`, the figures for the EC50 in [1], in assay [2] and in assay [3] were 528 pM, 223 pM and 18 pM, respectively.

For `COC(=O)N[C@H](C(=O)N1CCC[C@H]1c1ncc(-c2cc3c4c(c2)OCc2cc(-c5cnc([C@@H]6CCCN6C(=O)[C@@H](NC(=O)OC)C6CCOCC6)[nH]5)cc(c2-4)OC3)[nH]1)C(C)C`, the EC50 in assay [1] is 185 pM; in assay [2], 14 pM; in [3] it was 172 pM; in assay [4], 1330 pM; in [6], 1430 pM.

As for `COC(=O)N[C@H](C(=O)N1CCC[C@H]1c1ncc(-c2ccc3c(c2)COc2c-3ccc3c2ccc2nc([C@@H]4CCCN4C(=O)[C@@H](NC(=O)OC)C(C)C)[nH]c23)[nH]1)C(C)C`, the EC50 in assay [7] was 12 pM; in [1], 41 pM; in [8], 130 pM; in [2], 16 pM; in assay [3] it was 17 pM; in assay [5], 32300 pM. Besides, in assay [6], the EC50 was 20900 pM.

As for `COC(=O)N[C@H](C(=O)N1CCC[C@H]1c1ncc(-c2ccc3c(c2)COc2cc4c(ccc5nc([C@@H]6CCCN6C(=O)[C@@H](NC(=O)OC)C(C)C)[nH]c54)cc2-3)[nH]1)C(C)C`, the EC50 in [7] was 4 pM; in assay [1] it was 16 pM; in [8] it was 8 pM; in assay [2], 4 pM; in assay [3], 17 pM; in assay [5], 162 pM. The EC50 in [6] is 1160 pM.

Consider `COC(=O)N[C@@H](C(=O)N1C[C@@H](C)C[C@H]1c1ncc(-c2cc3c4c(c2)OCc2cc(-c5cnc([C@@H]6C[C@H](C)CN6C(=O)[C@H](NC(=O)OC)c6ccccc6)[nH]5)cc(c2-4)OC3)[nH]1)c1ccccc1`, for which the EC50 came to 5 pM in assay [9]; 6 pM in assay [7]; 31 pM in assay [1]; 13 pM in [8]; 20 pM in [3]; 26 pM in assay [5]. The EC50 in assay [6] came out at 58 pM.

Turning to `COC(=O)N[C@@H](C(=O)N1[C@@H](C)CC[C@H]1c1ncc(-c2cc3c4c(c2)OCc2cc(-c5cnc([C@@H]6CC[C@H](C)N6C(=O)[C@H](NC(=O)OC)c6ccccc6)[nH]5)cc(c2-4)OC3)[nH]1)c1ccccc1`, the EC50 stood at 8 pM in assay [9]; 4 pM in assay [7]; 150 pM in assay [1]; 15 pM in assay [8]; 20 pM in [3]; 94 pM in assay [5]. The EC50 in assay [6] turned out to be 1840 pM.

`COC(=O)N[C@H](C(=O)N1CCC[C@H]1c1ncc(-c2cc3ccc4cc(-c5cnc([C@@H]6CCCN6C(=O)[C@@H](NC(=O)OC)C(C)C)[nH]5)cc5c(=O)c(c2)c3c45)[nH]1)C(C)C`: the EC50 in assay [1] was found to be 220 pM; in [2], 73 pM; in [3], 13 pM.

With `COC(=O)N[C@H](C(=O)N1CCC[C@H]1c1ncc(-c2cc3c4c(c2)OCc2cc(-c5cnc([C@@H]6CCCN6C(=O)[C@@H](NC(=O)OC)C6CCOCC6)[nH]5)cc(c2-4)OC3)[nH]1)C1CCOCC1`, the EC50 in [1] was determined as 380 pM; in assay [2] it was 74 pM; in assay [3], 800 pM; in assay [5], 600 pM; in assay [6], 330 pM.

With `COC(=O)N[C@H](C(=O)N1CCC[C@H]1c1ncc(-c2cc3c4c(ccc5cc(-c6cnc([C@@H]7CCCN7C(=O)[C@@H](NC(=O)OC)C(C)C)[nH]6)cc(c54)OC3)c2)[nH]1)C(C)C`, the EC50 turned out to be 63 pM in assay [1]; 14 pM in [2]; 22 pM in [3]; 10200 pM in assay [5]; 19700 pM in assay [6].

On to `COC(=O)N[C@H](C(=O)N1[C@@H](C)CC[C@H]1c1nc2ccc3cc4c(cc3c2[nH]1)OCc1cc(-c2cnc([C@@H]3C[C@H](C)CN3C(=O)[C@H](NC(=O)OC)c3ccccc3)[nH]2)ccc1-4)C(C)C`, for which the EC50 in assay [9] stood at 4 pM; in assay [7], 20 pM; in assay [1], 8 pM; in assay [3], 5 pM; in [10], 15 pM; in [6], 53 pM.

With `COC(=O)N[C@H](C(=O)N1CCC[C@H]1c1ncc(-c2ccc3c(c2)COc2cc4c(ccc5nc([C@@H]6CCCN6C(=O)[C@H](NC(=O)OC)c6ccccc6)[nH]c54)cc2-3)[nH]1)C(C)C`, the EC50 in [9] is 4 pM; in assay [7], 5 pM; in assay [1] it was 22 pM; in [8], 8 pM; in assay [3], 21 pM; in [5], 12 pM. For the same compound, the EC50 in [6] turned out to be 134 pM.

For `COC(=O)N[C@H](C(=O)N1CCC[C@H]1c1ncc(-c2cc3c4c(c2)COc2cc(-c5cnc([C@@H]6CCCN6C(=O)[C@@H](NC(=O)OC)C(C)C)[nH]5)cc(c2-4)OC3)[nH]1)C(C)C`, the EC50 in [1] was 87 pM; in [2], 19 pM; in [3], 21 pM; in [4] it was 9850 pM.

Regarding `COC(=O)N[C@H](C(=O)N1CCC[C@H]1c1ncc(-c2ccc3c4ccc(-c5cnc([C@@H]6CCCN6C(=O)[C@@H](NC(=O)OC)C(C)C)[nH]5)cc4c4nc5ccccc5nc4c3c2)[nH]1)C(C)C`, the figures for the EC50 in assay [1], in assay [2] and in assay [3] were 5990 pM, 1470 pM and 10 pM, respectively.

`COC(=O)N[C@H](C(=O)N1CCC[C@H]1c1ncc(-c2cc3c4c(c2)OCc2cc(-c5cnc([C@@H]6CCCN6C(=O)[C@@H](NC(=O)OC)C6CCCC6)[nH]5)cc(c2-4)OC3)[nH]1)C1CCCC1`: the EC50 is 55 pM in [1], 22 pM in [2], 22 pM in [3] and above 44000 pM in assay [4].

Take `COC(=O)N[C@H](C(=O)N1CCC[C@H]1c1ncc(-c2cc3c4c(c2)OCc2cc(-c5cnc([C@@H]6CCCN6C(=O)[C@@H](NC(=O)OC)C6CCC6)[nH]5)cc(c2-4)OC3)[nH]1)C1CCC1`: the EC50 in assay [1] stood at 53 pM; in [2] it was 20 pM; in assay [3], 20 pM; in assay [4], 31300 pM.

Take `COC(=O)N[C@H](C(=O)N1CCC[C@H]1c1nc2ccc3cc4c(cc3c2[nH]1)OCc1cc(-c2cnc([C@@H]3CCCN3C(=O)[C@H](NC(=O)OC)c3ccccc3)[nH]2)ccc1-4)C(C)C`: the EC50 is 6 pM in assay [9]; 6 pM in [7]; 35 pM in [1]; 11 pM in assay [8]; 33 pM in [3]; 16 pM in assay [5]. For the same compound, in assay [6], the half-maximal effective concentration (EC50) amounted to 73 pM.

Consider `COC(=O)N[C@H](C(=O)N1CCC[C@H]1c1ncc(-c2ccc3c4ccc(-c5cnc([C@@H]6CCCN6C(=O)[C@@H](NC(=O)OC)C(C)C)[nH]5)cc4c4ccccc4c3c2)[nH]1)C(C)C`, for which the EC50 in assay [1] was found to be 92 pM; in [2] it was 20 pM; in [3] it was 5 pM; in [4], 6790 pM.

Take `CC[C@H](C)[C@H](NC(=O)OC)C(=O)N1CCC[C@H]1c1ncc(-c2cc3c4c(c2)OCc2cc(-c5cnc([C@@H]6CCCN6C(=O)[C@@H](NC(=O)OC)[C@@H](C)CC)[nH]5)cc(c2-4)OC3)[nH]1`: the EC50 in assay [1] was determined as 31 pM; in assay [2], 9 pM; in assay [3] it was 19 pM; in assay [4], 12100 pM; in [5], 1850 pM.

`COC(=O)N[C@H](C(=O)N1CCC[C@H]1c1ncc(-c2cc3c4c(c2)CCc2cc(-c5cnc([C@@H]6CCCN6C(=O)[C@@H](NC(=O)OC)C(C)C)[nH]5)cc(c2-4)CC3)[nH]1)C(C)C`: the EC50 in assay [1] amounted to 156 pM; in assay [2], 131 pM; in assay [3], 21 pM; in [4] it was 13300 pM.
